What is called IC50 is the concentration that inhibits the measured activity by half. One may read the Papp A→B as how fast a substance crosses the layer from the apical side. Low values mean poor permeation, high ones ready permeation. Broadly, the Papp B→A is the apparent permeability from the basolateral to the apical side of a cell layer.

Experimental findings from US20250304587A1, “WEE1 INHIBITOR, PREPARATION THEREFOR AND USE THEREOF” (JIANGSU TASLY DIYI PHARMACEUTICAL CO., LTD., priority 2022, published 2025) are described below.

Where two headings read alike, the source gives them in different places.

For one series, the system named is HT-29 cells. Put plainly: Cell Titer-Glo anti-proliferation, HT-29 cells. Particulars: Homo sapiens, HT-29, 72 h, 3 days, read-out: Anti-proliferative activity HT-29 (IC50 class). In kind it is cell-based, human. In short, it runs like this:
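Each line was exposed to graded compound concentrations for 3 days at 37 °C, 5% CO2, with final DMSO at 0.2%. Viability was measured by Cell Titer-Glo luminescence, with untreated cells as the maximum and medium as the minimum signal. IC50 came from a variable-slope log(inhibitor)-response fit.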

Series [1] in a line: Membrane permeability in Caco-2 model. In kind it is in vitro ADME. Particulars: human, Caco-2, pH 7.4; Caco2, 10 μM, 90 min. In a few lines:
(§1)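 Caco-2 monolayers grown 21-28 days post-seeding, integrity checked by Lucifer Yellow Papp. Apical and basolateral compound levels measured by LC-MS/MS against a standard curve to derive apparent permeability (Papp).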

The next series addresses CYP2C9 (Homo sapiens (Human), UniProt P11712). Briefly: Cytochrome P450 inhibition (fluorescence), CYP2C9. Type of series: in vitro ADME. Conditions: read-out: IC50 CYP2C9. As for the experimental part:
(§2) Enzymatic experiments were performed to quantify the inhibition of CYP450 enzyme activity of each isoform of CYP450 by small molecule inhibitors through fluorescence generated by the oxidation of the substrate by cytochrome P450. […] The Solution B composition used for the experiment was: 40 U/mL G6PDH (Sigma-aldrich, Cat #G6378). The substrate mix was 0.05× Solution A, 0.01× Solution B, 50 mM Potassium Phosphate, 0.01 mM BOMCC/0.01 mM EOMCC/0.001 mM DBOMF. […] The data were analyzed and processed using GraphPad Prism 6 software to obtain IC50 values.

The target of the next series is CYP2C19 (Homo sapiens (Human), UniProt P33261). Briefly: Cytochrome P450 inhibition (fluorescence), CYP2C19. In kind it is in vitro ADME. Particulars: read-out: IC50 CYP2C19. As for the experimental part:
as §2

The target in a further series is CYP2D6 (Homo sapiens (Human), UniProt P10635). Put plainly: Cytochrome P450 inhibition (fluorescence), CYP2D6. In kind it is in vitro ADME. Conditions: read-out: IC50 CYP2D6. As for the experimental part:
as §2

The next series has as its target CYP2C8 (Homo sapiens (Human), UniProt P10632). Put plainly: Cytochrome P450 inhibition (fluorescence), CYP2C8. In kind it is in vitro ADME. Conditions: read-out: IC50 CYP2C8. As for the experimental part: as §2
The next series deals with CYP 2B6 (Homo sapiens (Human), UniProt P20813). Briefly: Cytochrome P450 inhibition, CYP2B6. In kind it is in vitro ADME. As for the experimental part: as §2
The conditions of series [2]: SD, rat, in vivo, 14 days.
In another series the test system is Caco-2 cells. Put plainly: Membrane permeability in Caco-2 model. Type of series: in vitro ADME. In short, it runs like this:
as §1
On the technique in general: Caco-2 monolayers are a common model of the intestinal barrier.

Series [3] can be described thus: Single dose toxicity in rats, maximum tolerated dose.
[4] abbreviates: female rats, 200 mg/kg by gavage.
The mark [5] stands for this setting: female rats, 300 mg/kg by gavage.
Where [6] appears, read: female rats, 400 mg/kg by gavage.
Setting [7] is: female rats, 500 mg/kg by gavage.

Sequence of CYP2C9 (P11712 whole entry, canonical isoform): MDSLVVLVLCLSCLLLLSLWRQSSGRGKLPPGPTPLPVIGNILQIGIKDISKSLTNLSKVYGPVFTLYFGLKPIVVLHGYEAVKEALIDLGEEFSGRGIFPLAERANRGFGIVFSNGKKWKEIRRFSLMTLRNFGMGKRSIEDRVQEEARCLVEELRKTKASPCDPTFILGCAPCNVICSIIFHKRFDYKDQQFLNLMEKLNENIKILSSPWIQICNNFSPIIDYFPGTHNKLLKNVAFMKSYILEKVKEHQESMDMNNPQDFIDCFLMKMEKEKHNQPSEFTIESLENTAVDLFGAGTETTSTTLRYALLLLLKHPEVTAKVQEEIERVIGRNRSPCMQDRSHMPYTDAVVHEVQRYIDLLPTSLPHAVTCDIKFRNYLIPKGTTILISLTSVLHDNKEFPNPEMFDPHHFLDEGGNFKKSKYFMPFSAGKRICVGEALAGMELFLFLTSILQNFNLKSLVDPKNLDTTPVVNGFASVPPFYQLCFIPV
Sequence of CYP 2B6 (P20813 whole entry): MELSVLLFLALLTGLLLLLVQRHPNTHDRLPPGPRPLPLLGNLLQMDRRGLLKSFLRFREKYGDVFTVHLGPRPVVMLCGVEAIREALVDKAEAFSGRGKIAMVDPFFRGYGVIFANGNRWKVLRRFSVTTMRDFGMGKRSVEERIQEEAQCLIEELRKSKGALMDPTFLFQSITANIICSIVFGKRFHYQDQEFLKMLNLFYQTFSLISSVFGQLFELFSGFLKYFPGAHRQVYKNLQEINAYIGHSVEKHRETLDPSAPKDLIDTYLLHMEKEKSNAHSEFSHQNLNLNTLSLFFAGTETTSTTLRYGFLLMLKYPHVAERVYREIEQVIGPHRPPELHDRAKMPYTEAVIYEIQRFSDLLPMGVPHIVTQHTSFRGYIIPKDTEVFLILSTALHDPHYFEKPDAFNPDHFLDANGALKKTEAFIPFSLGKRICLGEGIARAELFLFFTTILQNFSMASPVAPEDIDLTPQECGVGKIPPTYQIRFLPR
Sequence of CYP2D6 (P10635 whole entry): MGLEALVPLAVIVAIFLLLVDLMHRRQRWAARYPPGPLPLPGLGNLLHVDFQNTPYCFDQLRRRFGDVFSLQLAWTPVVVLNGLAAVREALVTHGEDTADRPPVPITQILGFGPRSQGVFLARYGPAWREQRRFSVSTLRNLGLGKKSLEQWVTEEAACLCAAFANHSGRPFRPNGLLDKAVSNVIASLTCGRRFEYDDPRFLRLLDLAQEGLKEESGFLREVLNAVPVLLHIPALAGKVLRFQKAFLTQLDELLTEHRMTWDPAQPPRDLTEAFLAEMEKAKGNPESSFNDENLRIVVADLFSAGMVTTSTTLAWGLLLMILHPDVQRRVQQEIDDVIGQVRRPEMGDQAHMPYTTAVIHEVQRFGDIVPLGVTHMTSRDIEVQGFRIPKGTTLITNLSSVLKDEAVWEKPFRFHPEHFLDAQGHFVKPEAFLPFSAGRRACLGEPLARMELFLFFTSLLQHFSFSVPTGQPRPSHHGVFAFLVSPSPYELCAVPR
Sequence of CYP2C19 (P33261 whole entry): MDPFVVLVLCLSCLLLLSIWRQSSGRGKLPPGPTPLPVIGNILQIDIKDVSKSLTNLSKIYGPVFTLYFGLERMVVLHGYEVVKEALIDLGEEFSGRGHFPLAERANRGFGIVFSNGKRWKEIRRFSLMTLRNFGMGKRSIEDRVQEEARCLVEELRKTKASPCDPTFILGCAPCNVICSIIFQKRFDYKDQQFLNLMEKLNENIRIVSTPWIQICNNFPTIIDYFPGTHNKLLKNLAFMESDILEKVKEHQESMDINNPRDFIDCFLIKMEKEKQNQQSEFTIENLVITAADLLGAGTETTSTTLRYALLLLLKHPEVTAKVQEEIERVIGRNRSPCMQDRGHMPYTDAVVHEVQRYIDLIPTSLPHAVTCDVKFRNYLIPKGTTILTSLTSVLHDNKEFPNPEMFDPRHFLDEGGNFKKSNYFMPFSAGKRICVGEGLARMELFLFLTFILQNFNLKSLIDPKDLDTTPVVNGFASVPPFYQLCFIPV
Sequence of CYP2C8 (P10632 whole entry): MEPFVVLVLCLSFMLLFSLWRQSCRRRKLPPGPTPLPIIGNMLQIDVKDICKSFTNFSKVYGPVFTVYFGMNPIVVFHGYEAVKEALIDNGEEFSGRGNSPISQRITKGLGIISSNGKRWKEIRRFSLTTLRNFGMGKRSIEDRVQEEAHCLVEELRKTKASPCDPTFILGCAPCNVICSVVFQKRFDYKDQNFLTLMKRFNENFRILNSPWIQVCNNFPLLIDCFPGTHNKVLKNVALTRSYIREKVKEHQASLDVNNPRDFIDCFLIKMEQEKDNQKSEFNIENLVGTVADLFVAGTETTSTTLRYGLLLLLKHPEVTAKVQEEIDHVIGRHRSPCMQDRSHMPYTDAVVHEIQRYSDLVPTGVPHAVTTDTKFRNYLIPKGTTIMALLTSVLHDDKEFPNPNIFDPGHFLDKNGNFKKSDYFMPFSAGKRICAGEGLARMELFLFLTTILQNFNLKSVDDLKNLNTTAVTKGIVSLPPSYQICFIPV

Consider `C=CCn1c(=O)c2cnc(Nc3ccc(N4CCN(C)CC4)cc3)nc2n1-c1cccc(C(C)(C)O)n1` [AZD1775, reference compound], for which the IC50 in the series on HT-29 cells was 0.1 to 1 µM; at CYP2C9, above 10 µM; on CYP2C19, 1 to 10 µM; on CYP2D6 it was above 10 µM; on CYP2C8, above 10 µM; at CYP 2B6 it was above 10 µM. The Papp A→B at 90 min, 10 µM in [1] is 8 nm/s. The compound also came in with a basolateral-to-apical permeability (Papp B→A) at 90 min, 10 µM in [1] of 152 nm/s. In addition, the “Survival of Rats” value in [2] (female, 25 mg/kg) was 7/7; in [2] (female, 75 mg/kg) it was 0/7; in series [2] (male, 25 mg/kg), 7/7; in [2] (male, 75 mg/kg) it was 1/7.
As to `[2H][C@]1(O)c2nc(-n3c4nc(Nc5ccc(N6CCC7(CCN(C)CC7)CC6)cc5)ncc4c(=O)n3CC=C)ccc2CCC12CC2` [Compound 37b], the “Efflux Ration” value with Caco-2 cells (Caco2) is listed as 21.06. Moreover, the “Papp A to B” value with Caco-2 cells (Caco2, 10 μM, 90 min) was 0.46 10^−6 cm/s. Besides, in the series on Caco-2 cells (Caco2, 10 μM, 90 min), the “Papp B to A” value is 9.69 10^−6 cm/s. Also, the “Death Numbers” value was determined as 0 in [3] (setting [4]); 0 in series [3] (setting [5]); 3 in series [3] (setting [6]); 2 in series [3] (setting [7]); 0 in series [3] (male rats, 200 mg/kg by gavage); 0 in series [3] (male rats, 300 mg/kg by gavage). The “Death Numbers” value turned out to be 2 in series [3] (male rats, 400 mg/kg by gavage) and 2 in [3] (male rats, 500 mg/kg by gavage). In addition, the “Death Rate” value stood at 0% in [3] (setting [4]); 0% in series [3] (setting [5]); 60% in series [3] (setting [6]); 67% in series [3] (setting [7]); 0% in [3] (male rats, 200 mg/kg by gavage); 0% in series [3] (male rats, 300 mg/kg by gavage). The “Death Rate” value amounted to 40% in series [3] (male rats, 400 mg/kg by gavage) and 40% in [3] (male rats, 500 mg/kg by gavage).
